Assay results published in ChEMBL document CHEMBL2010763, “Discovery of a new binding mode for a series of liver X receptor agonists” (Bioorg Med Chem Lett, 2012).
Active and inactive are the calls of the source. No cut-off for these calls is given here.

Key:
[1] = target: Oxysterols receptor LXR-beta (Homo sapiens, UniProt P55055); assay: Displacement of [3H]N-(4-(1,1,1,3,3,3-hexafluoro-2-hydroxypropan-2-yl)phenyl)-N-methylbenzenesulfonamide from LXRbeta by scintillation proximity assay
[2] = target: T1, Oxysterols receptor LXR-alpha (Homo sapiens) (UniProt Q13133); assay: (§1) Displacement of [3H]N-(4-(1,1,1,3,3,3-hexafluoro-2-hydroxypropan-2-yl)phenyl)-N-methylbenzenesulfonamide from LXRalpa by scintillation proximity assay
T1 sequence (whole entry): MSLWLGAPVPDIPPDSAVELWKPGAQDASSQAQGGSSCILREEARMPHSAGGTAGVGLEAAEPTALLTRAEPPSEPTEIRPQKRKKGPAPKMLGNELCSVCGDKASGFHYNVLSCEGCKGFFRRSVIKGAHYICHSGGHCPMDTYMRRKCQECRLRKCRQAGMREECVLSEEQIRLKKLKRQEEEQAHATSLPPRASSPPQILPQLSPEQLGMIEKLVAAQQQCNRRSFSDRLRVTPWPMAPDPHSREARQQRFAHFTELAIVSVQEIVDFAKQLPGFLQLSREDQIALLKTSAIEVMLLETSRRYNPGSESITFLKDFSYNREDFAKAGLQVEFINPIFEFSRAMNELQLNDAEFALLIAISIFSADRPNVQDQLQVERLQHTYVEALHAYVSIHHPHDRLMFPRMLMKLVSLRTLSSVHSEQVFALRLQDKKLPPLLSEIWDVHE

[3] = target: T2, Oxysterols receptor LXR-alpha (Homo sapiens, UniProt Q13133); assay: as §1
T2 sequence (Q13133 whole entry): T1 sequence (whole entry)

Chain of Oxysterols receptor LXR-beta (P55055 whole entry): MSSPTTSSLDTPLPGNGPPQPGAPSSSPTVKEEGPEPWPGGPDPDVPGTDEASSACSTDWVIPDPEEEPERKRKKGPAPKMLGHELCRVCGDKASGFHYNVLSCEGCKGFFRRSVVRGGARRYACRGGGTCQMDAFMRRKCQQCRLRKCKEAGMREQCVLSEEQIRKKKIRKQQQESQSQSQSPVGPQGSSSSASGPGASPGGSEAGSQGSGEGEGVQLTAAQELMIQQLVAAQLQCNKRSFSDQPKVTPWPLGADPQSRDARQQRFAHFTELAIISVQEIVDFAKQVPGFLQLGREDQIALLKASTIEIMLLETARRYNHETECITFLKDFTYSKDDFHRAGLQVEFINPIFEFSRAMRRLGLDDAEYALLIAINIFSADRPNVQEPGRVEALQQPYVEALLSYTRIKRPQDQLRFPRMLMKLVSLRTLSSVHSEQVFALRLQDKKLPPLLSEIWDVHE

Row | Structure (SMILES) | inhibition [1] | inhibition [2] | IC50 [1] | IC50 [3]
1 | COCCn1cccc1C(CO)c1ccc(N(C)S(=O)(=O)c2ccccc2)cc1 (centres undefined) | inactive | inactive |  | 
2 | CN(c1ccc(C(O)(c2cccn2CCCO)C(F)(F)F)cc1)S(=O)(=O)c1ccccc1 (centres undefined) | inactive | inactive |  | 
3 | CCCC(c1ccc(N(C)S(=O)(=O)c2ccccc2)cc1)c1cccn1CCOC (centres undefined) | inactive | inactive |  | 
4 | CN(c1ccc(C(O)(c2cccn2CCO)C(F)(F)F)cc1)S(=O)(=O)c1ccccc1 (centres undefined) | inactive | inactive |  | 
5 | CCC(C)n1cccc1C(O)(c1ccc(N(C)S(=O)(=O)c2ccccc2)cc1)C(F)(F)F (centres undefined) | inactive | inactive |  | 
6 | CCC(c1ccc(N(C)S(=O)(=O)c2ccccc2)cc1)c1cccn1CCOC (centres undefined) | inactive | inactive |  | 
7 | COCCn1cccc1Cc1ccc(N(C)S(=O)(=O)c2ccccc2)cc1 | inactive | inactive |  | 
8 | CN(c1ccc(C(O)(c2cccn2C)C(F)(F)F)cc1)S(=O)(=O)c1ccccc1 (centres undefined) | inactive | inactive |  | 
9 | COCCn1cccc1C(C)c1ccc(N(C)S(=O)(=O)c2ccccc2)cc1 (centres undefined) | inactive | inactive |  | 
10 | CCOC(c1ccc(N(C)S(=O)(=O)c2ccccc2)cc1)c1cccn1CCOC (centres undefined) | inactive | inactive |  | 
11 | COC(c1ccc(N(C)S(=O)(=O)c2ccccc2)cc1)(c1cccn1Cc1ccccc1)C(F)(F)F (racemic) |  |  | > 10 µM | > 10 µM
12 | COCCn1cccc1C(O)c1ccc(N(C)S(=O)(=O)c2ccccc2)cc1 (centres undefined) | inactive | inactive |  | 
13 | CN(c1ccc(C(O)(c2ccc[nH]2)C(F)(F)F)cc1)S(=O)(=O)c1ccccc1 (centres undefined) | inactive | inactive |  | 
14 | COCCn1cccc1C(OC)c1ccc(N(C)S(=O)(=O)c2ccccc2)cc1 (centres undefined) | inactive | inactive |  | 
15 | COCCn1cccc1C(C)(O)c1ccc(N(C)S(=O)(=O)c2ccccc2)cc1 (centres undefined) | inactive | inactive |  | 
16 | CCC(O)(c1ccc(N(C)S(=O)(=O)c2ccccc2)cc1)c1cccn1CCOC (centres undefined) | inactive | inactive |  | 
17 | CCCCCCn1cccc1C(O)(c1ccc(N(C)S(=O)(=O)c2ccccc2)cc1)C(F)(F)F (centres undefined) | inactive | inactive |  | 
18 | CCCn1cccc1C(O)(c1ccc(N(C)S(=O)(=O)c2ccccc2)cc1)C(F)(F)F (centres undefined) | inactive | inactive |  | 
19 | CCn1cccc1C(O)(c1ccc(N(C)S(=O)(=O)c2ccccc2)cc1)C(F)(F)F (centres undefined) | inactive | inactive |  | 
20 | CCCCn1cccc1C(O)(c1ccc(N(C)S(=O)(=O)c2ccccc2)cc1)C(F)(F)F (centres undefined) | inactive | inactive |  | 
21 | COCCn1cccc1C(=O)c1ccc(N(C)S(=O)(=O)c2ccccc2)cc1 | inactive | inactive |  | 
22 | CCCC(O)(c1ccc(N(C)S(=O)(=O)c2ccccc2)cc1)c1cccn1CCOC (centres undefined) | inactive | inactive |  | 
